The results in this text go back to patent US20180244611A1, “Modulators of the Cystic Fibrosis Transmembrane Conductance Regulator Protein and Methods of Use” (AbbVie S.à.r.l., priority 2017, published 2018).

The target of experiment [1] is T1, F508delCFTR (Homo sapiens, UniProt P13569, DEL508-508).
T1 construct: expressed in transfected cells; host or cells: CFBE41o- human lung-derived epithelial cells (CFBE41o-F508delCFTR-HRP), doxycycline-inducible
As to the kind of experiment: Cell Surface Expression-Horse Radish Peroxidase (CSE-HRP) assay, test compound without co-corrector.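 For Emax: percent of on-plate 2 µM positive control corrector response over DMSO.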 The experiment is classed as cell-based. The conditions noted are these: for Emax: maximum at any tested concentration, normalized to positive control, without co-corrector; for EC50: test compound without co-corrector. The procedure:
(§1) Cell Surface Expression-Horse Radish Peroxidase (CSE-HRP) Assay
(§2) A cellular assay for measuring the F508delCFTR cell surface expression after correction with test compounds either without or with a co-corrector (2 μM of 3-[(2R,4R)-4-({[1-(2,2-difluoro-1,3-benzodioxol-5-yl)cyclopropyl]carbonyl}amino)-7-methoxy-3,4-dihydro-2H-chromen-2-yl]benzoic acid), was developed in human lung derived epithelial cell line (CFBE41o-) (Veit G et al, (2012) Mol Biol Cell. 23(21): 4188-4202). The development was achieved by expressing the F508delCFTR mutation along with a horseradish peroxidase (HRP) in the fourth exofacial loop, and then measuring the HRP activity using luminescence readout from these cells, CFBE41o-F508delCFTR-HRP, that were incubated overnight with the test corrector compounds, either without or with the co-corrector. For this primary assay, the CFBE41o-F508delCFTR-HRP cells were plated in 384-well plates (Greiner Bio-one; Cat 781080) at 4,000 cells/well along with 0.5 μg/mL doxycycline to induce the F508delCFTR-HRP expression and further incubated at 37° C., 5% CO2 for 72 hours. The test compounds were then added either without or with a co-corrector at the required concentrations and further incubated for 18-24 hours at 33° C. The highest concentration tested was 20 μM with an 8-point concentration response curve using a 3-fold dilution in both the test compound without or with the co-corrector. Three replicate plates were run to determine one EC50. All plates contained negative controls (dimethyl sulfoxide, DMSO) and positive control (2 μM of 3-[(2R,4R)-4-({[1-(2,2-difluoro-1,3-benzodioxol-5-yl)cyclopropyl]carbonyl}amino)-7-methoxy-3,4-dihydro-2H-chromen-2-yl]benzoic acid) as well as on-plate concentration response of the positive control. Post incubation, the plates were washed 5× times with Dulbecco's phosphate buffered saline (DPBS), followed by the addition of the HRP substrate, luminol (50 μL), and measuring the HRP activity using luminescence readout on EnVision® Multilabel Plate Reader (Perkin Elmer; product number 2104-0010). The raw counts from the experiment were analyzed using Accelrys® Assay Explorer v3.3.
(§3) Z′ greater than 0.5 was used as passing quality control criteria for the plates.
(§4) 1−[3*SDPositive Control+3*SDNegative Control/Absolute (MeanPositive Control−MeanNegative Control)]
(§5) wherein “SD” is standard deviation.
(§6) The % activity measured at each of the 8 test concentrations of the test compound added either without or with a co-corrector (2 μM of 3-[(2R,4R)-4-({[1-(2,2-difluoro-1,3-benzodioxol-5-yl)cyclopropyl]carbonyl}amino)-7-methoxy-3,4-dihydro-2H-chromen-2-yl]benzoic acid) was normalized to the on-plate positive control using the following formulae:
% activity (Test compound without co-corrector)=[(test compound without co-corrector response−DMSO response)/(positive control response−DMSO response)]*100%
(§7) The maximum % activity achieved for the test compound either without or with a co-corrector at any tested concentration is presented in Table 1 along with the respective EC50's calculated using the following general sigmoidal curve with variable Hill slope equation (described as Model 42 in the Accelrys® Assay Explorer v3.3 software):
(§8) General sigmoidal curve with concentration, response, top, bottom, EC50 and Hill slope. This model describes a sigmoidal curve with an adjustable baseline, a. The equation can be used to fit curves where response is either increasing or decreasing with respect to the independent variable, “x”.
“x” is a concentration of drug under test. “y” is the response. “a” is the maximum response, and “d” is the minimum response “c” is the inflection point (EC50) for the curve. That is, “y” is halfway between the lower and upper asymptotes when x=c. “b” is the slope-factor or Hill coefficient. The sign of b is positive when the response increases with increasing dose and is negative when the response decreases with increasing dose (inhibition). The data is presented with the qualifiers shown below: […]

Experiment [2] has as its target T1, F508delCFTR. As to the kind of experiment: Cell Surface Expression-Horse Radish Peroxidase (CSE-HRP) assay, test compound with co-corrector.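 For Maximum % activity (with co-corrector): percent of 2 µM positive control corrector over DMSO; co-corrector is that same compound.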 The conditions noted are these: with 2 μM co-corrector; for Maximum % activity (with co-corrector): maximum at any tested concentration, normalized to positive control. In kind it is cell-based. The procedure: as §1, §2, §3, §4, §5, §6
activity (Test compound with co-corrector)=[(test compound with co-corrector response−DMSO response)/(positive control response−DMSO response)]*100
as §7, §8
“x” is a concentration of drug under test. “y” is the response. “a” is the maximum response, and “d” is the minimum response “c” is the inflection point (EC50) for the curve. That is, “y” is halfway between the lower and upper asymptotes when x=c. “b” is the slope-factor or Hill coefficient. The sign of b is positive when the response increases with increasing dose and is negative when the response decreases with increasing dose (inhibition).

Structures are written as SMILES.

T1 sequence (P13569 with tags, fused parts or gaps DEL508-508): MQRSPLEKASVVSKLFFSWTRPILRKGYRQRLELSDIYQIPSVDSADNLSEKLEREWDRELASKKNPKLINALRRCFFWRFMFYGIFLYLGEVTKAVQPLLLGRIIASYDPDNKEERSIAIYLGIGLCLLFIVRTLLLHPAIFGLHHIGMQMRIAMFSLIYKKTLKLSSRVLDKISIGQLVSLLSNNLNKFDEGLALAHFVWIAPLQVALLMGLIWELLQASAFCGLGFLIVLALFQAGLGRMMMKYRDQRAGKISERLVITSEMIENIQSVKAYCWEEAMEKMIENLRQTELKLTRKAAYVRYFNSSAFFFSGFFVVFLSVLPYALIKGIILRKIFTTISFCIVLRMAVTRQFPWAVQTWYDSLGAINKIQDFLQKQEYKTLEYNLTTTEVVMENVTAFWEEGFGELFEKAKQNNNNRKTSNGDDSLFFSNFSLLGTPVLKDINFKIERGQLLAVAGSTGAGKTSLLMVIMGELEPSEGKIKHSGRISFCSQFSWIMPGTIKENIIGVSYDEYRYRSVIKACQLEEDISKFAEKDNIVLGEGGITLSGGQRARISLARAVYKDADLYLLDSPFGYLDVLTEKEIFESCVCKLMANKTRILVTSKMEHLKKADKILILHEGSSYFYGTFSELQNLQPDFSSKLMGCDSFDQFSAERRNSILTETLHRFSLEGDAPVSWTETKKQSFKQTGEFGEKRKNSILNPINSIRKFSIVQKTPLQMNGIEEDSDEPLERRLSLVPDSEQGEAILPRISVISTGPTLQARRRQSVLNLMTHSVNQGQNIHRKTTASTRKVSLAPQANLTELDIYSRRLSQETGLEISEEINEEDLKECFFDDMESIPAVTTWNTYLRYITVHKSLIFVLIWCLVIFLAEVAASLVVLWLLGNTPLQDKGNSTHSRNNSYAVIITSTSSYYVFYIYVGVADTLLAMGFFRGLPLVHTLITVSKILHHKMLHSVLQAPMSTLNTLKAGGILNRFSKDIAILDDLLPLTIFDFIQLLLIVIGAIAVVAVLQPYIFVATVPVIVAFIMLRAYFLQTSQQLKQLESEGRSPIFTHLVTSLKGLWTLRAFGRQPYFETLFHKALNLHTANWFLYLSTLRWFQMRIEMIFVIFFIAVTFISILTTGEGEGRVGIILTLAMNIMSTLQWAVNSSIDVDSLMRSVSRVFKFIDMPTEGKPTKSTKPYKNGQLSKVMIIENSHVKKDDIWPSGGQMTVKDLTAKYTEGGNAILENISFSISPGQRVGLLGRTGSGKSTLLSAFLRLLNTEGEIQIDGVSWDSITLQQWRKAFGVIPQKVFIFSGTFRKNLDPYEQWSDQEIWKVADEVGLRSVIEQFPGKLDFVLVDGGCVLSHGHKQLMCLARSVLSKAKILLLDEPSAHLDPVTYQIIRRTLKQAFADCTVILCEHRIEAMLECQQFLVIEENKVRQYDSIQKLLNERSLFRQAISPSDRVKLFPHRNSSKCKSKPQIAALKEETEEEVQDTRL

Consider `COc1ccc2c(c1)[C@](C)(C(=O)NS(=O)(=O)c1cccc3ccccc13)CC2` [Example I-23, (1R)-6-methoxy-1-methyl-N-(naphthalene-1-sulfonyl)-2,3-dihydro-1H-indene-1-carboxamide], for which, at F508delCFTR [1], the Emax (commonly the maximal effect, on the per cent scale that the assay sets) is not below 150% and the EC50 – broadly, the concentration that produces a half-maximal response – was in the range of 3 to 10 µM. On F508delCFTR [2], the “Maximum % activity (with co-corrector)” value is recorded as “+++ (≥350)” and the EC50 is less than 3 µM.
On the same counts, the results for `O=C(NS(=O)(=O)c1cccc2ccccc12)C1CCCc2c1ccc1c2OCO1` (stereo not shown) [Example I-24, N-(naphthalene-1-sulfonyl)-6,7,8,9-tetrahydro-2H-naphtho[1,2-d][1,3]dioxole-6-carboxamide] are not below 150%, 3 to 10 µM, “+++ (≥350)” and less than 3 µM.
On the same counts, the results for `C[C@@]1(C(=O)NS(=O)(=O)c2cccc3ccccc23)CCc2cccc(Cl)c21` [Example I-27, (1R)-7-chloro-1-methyl-N-(naphthalene-1-sulfonyl)-2,3-dihydro-1H-indene-1-carboxamide] are not below 150%, less than 3 µM, “+++ (≥350)” and less than 3 µM.
For `CCC1(C(=O)NS(=O)(=O)c2cccc3ccccc23)CCc2c(Br)ccc(OC)c21` (stereo not shown) [Example I-28, 4-bromo-1-ethyl-7-methoxy-N-(naphthalene-1-sulfonyl)-2,3-dihydro-1H-indene-1-carboxamide], in that order: not below 150%, less than 3 µM, “+++ (≥350)” and less than 3 µM.
On F508delCFTR [1], `O=C(NS(=O)(=O)c1cccc2ccccc12)C1(CC2CC2)CCc2c(Cl)cccc21` (stereo not shown) [Example I-29, 4-chloro-1-(cyclopropylmethyl)-N-(naphthalene-1-sulfonyl)-2,3-dihydro-1H-indene-1-carboxamide] yielded an Emax not below 150% and an EC50 of less than 3 µM. Besides, on F508delCFTR [2], the “Maximum % activity (with co-corrector)” value is reported as “+++ (≥350)” and the EC50 is less than 3 µM.
As to `CCC1(C(=O)NS(=O)(=O)c2cccc3cccc(O)c23)CCc2c(Cl)cccc21` (stereo not shown) [Example I-31, 4-chloro-1-ethyl-N-(8-hydroxynaphthalene-1-sulfonyl)-2,3-dihydro-1H-indene-1-carboxamide], at F508delCFTR [1], the Emax fell in the range of 50 to 150% and the EC50 is less than 3 µM. Also, on F508delCFTR [2], the “Maximum % activity (with co-corrector)” value is “+++ (≥350)” and the EC50 was less than 3 µM.
In the case of `CCOc1ccc(Br)c2c1CCCC2C(=O)NS(=O)(=O)c1cccc2ccccc12` (stereo not shown) [Example I-32, 8-bromo-5-ethoxy-N-(naphthalene-1-sulfonyl)-1,2,3,4-tetrahydronaphthalene-1-carboxamide], at F508delCFTR [1], the Emax is not below 150% and the EC50 was less than 3 µM. For the same molecule, at F508delCFTR [2], the “Maximum % activity (with co-corrector)” value is given as “+++ (≥350)” and the EC50 was less than 3 µM.
Take `COc1ccc(C2CCC2)c2c1CCCC2C(=O)NS(=O)(=O)c1cccc2ccccc12` (stereo not shown) [Example I-33, 8-cyclobutyl-5-methoxy-N-(naphthalene-1-sulfonyl)-1,2,3,4-tetrahydronaphthalene-1-carboxamide]: at F508delCFTR [1], the Emax was not below 150% and the EC50 was less than 3 µM. At F508delCFTR [2], the “Maximum % activity (with co-corrector)” value is “+++ (≥350)” and the EC50 is less than 3 µM.
On F508delCFTR [1], `CCC1(C(=O)NS(=O)(=O)c2cccc3ccccc23)CCCc2cccc(Cl)c21` (stereo not shown) [Example I-34, 8-chloro-1-ethyl-N-(naphthalene-1-sulfonyl)-1,2,3,4-tetrahydronaphthalene-1-carboxamide] gave an Emax not below 150% and an EC50 of less than 3 µM. At F508delCFTR [2], the “Maximum % activity (with co-corrector)” value is recorded as “+++ (≥350)” and the EC50 was less than 3 µM.
At F508delCFTR [1], `O=C(NS(=O)(=O)c1cccc2ccccc12)C1(Cc2cccc(C(F)(F)F)n2)CCc2c(Cl)cccc21` (stereo not shown) [Example I-35, 4-chloro-N-(naphthalene-1-sulfonyl)-1-{[6-(trifluoromethyl)pyridin-2-yl]methyl}-2,3-dihydro-1H-indene-1-carboxamide] came in with an Emax not below 150% and an EC50 of less than 3 µM. Besides, at F508delCFTR [2], the “Maximum % activity (with co-corrector)” value was “+++ (≥350)” and the EC50 is less than 3 µM.
Take `O=C(NS(=O)(=O)c1cccc2ccccc12)C1(Cc2ccc(Cl)nc2)CCc2c(Cl)cccc21` (stereo not shown) [Example I-36, 4-chloro-1-[(6-chloropyridin-3-yl)methyl]-N-(naphthalene-1-sulfonyl)-2,3-dihydro-1H-indene-1-carboxamide]: at F508delCFTR [1], the Emax lay in the range of 50 to 150% and the EC50 lay in the range of 3 to 10 µM. Moreover, at F508delCFTR [2], the “Maximum % activity (with co-corrector)” value is on record as “+++ (≥350)” and the EC50 was less than 3 µM.
On the same counts, the results for `COc1cccc(CC2(C(=O)NS(=O)(=O)c3cccc4ccccc34)CCc3c(Cl)cccc32)n1` (stereo not shown) [Example I-37, 4-chloro-1-[(6-methoxypyridin-2-yl)methyl]-N-(naphthalene-1-sulfonyl)-2,3-dihydro-1H-indene-1-carboxamide] are 50 to 150%, 3 to 10 µM, “+++ (≥350)” and 3 to 10 µM.
For `CC1(C(=O)NS(=O)(=O)c2cccc3ccccc23)CCc2c(Cl)cccc21` (stereo not shown) [Example I-38, 4-chloro-1-methyl-N-(naphthalene-1-sulfonyl)-2,3-dihydro-1H-indene-1-carboxamide], in that order: not below 150%, 3 to 10 µM, “+++ (≥350)” and less than 3 µM.
For `CCC1(C(=O)NS(=O)(=O)c2cccc3c(Cl)cccc23)CCc2c(Cl)cccc21` (stereo not shown) [Example I-39, 4-chloro-N-(5-chloronaphthalene-1-sulfonyl)-1-ethyl-2,3-dihydro-1H-indene-1-carboxamide], in that order: 50 to 150%, less than 3 µM, “+++ (≥350)” and less than 3 µM.
Take `CC(C)Oc1ccc(Br)c2c1CCCC2C(=O)NS(=O)(=O)c1cccc2ccccc12` (stereo not shown) [Example I-40, 8-bromo-N-(naphthalene-1-sulfonyl)-5-[(propan-2-yl)oxy]-1,2,3,4-tetrahydronaphthalene-1-carboxamide]: at F508delCFTR [1], the Emax was not below 150% and the EC50 is less than 3 µM. Besides, at F508delCFTR [2], the “Maximum % activity (with co-corrector)” value is on record as “+++ (≥350)” and the EC50 is less than 3 µM.
`COc1ccc(Br)c2c1C(C(=O)NS(=O)(=O)c1cccc3ccccc13)CCC2` (stereo not shown) [Example I-41, 5-bromo-8-methoxy-N-(naphthalene-1-sulfonyl)-1,2,3,4-tetrahydronaphthalene-1-carboxamide]: on F508delCFTR [1], the Emax was not below 150% and the EC50 was less than 3 µM. Besides, at F508delCFTR [2], the “Maximum % activity (with co-corrector)” value is “+++ (≥350)” and the EC50 was less than 3 µM.
